The species named for one assay is Homo sapiens. The assay is described as follows: Binding affinity to c-KIT G-quadruplex DNA in human K562 cells assessed as reduction in c-KIT mRNA level at 0.5 uM after 48 hrs by RT-PCR analysis. In kind it is cell-based.
The nature of assay [1]: Selectivity ratio of Kd for biotinylated duplex DNA (unknown origin) to Kd for biotinylated c-KIT1 G-quadruplex DNA (unknown origin).
Assay [2] can be described thus: Binding affinity to biotinylated duplex DNA (unknown origin) by SPR assay.
A short description of assay [3]: Binding affinity to 5'-FAM/3'-TAMARA labelled c-KIT1 G-quadruplex DNA (unknown origin) assessed as change in melting temperature at 2 uM in presence ds26 DNA by FRET assay.
The subject of a further assay is BJ. The assay is described as follows: Cytotoxicity against human BJ cells after 48 hrs by MTT assay. In kind it is cell-based. A general note: Tetrazolium dyes change colour on reduction, which living cells bring about.
A short description of assay [4]: Binding affinity to 5'-FAM/3'-TAMARA labelled c-KIT1 G-quadruplex DNA (unknown origin) assessed as change in melting temperature at 2 uM by FRET assay.
The nature of assay [5]: Binding affinity to 5'-FAM/3'-TAMARA labelled c-KIT1 G-quadruplex DNA (unknown origin) assessed as change in melting temperature at 1 uM by FRET assay.
A further assay concerns HeLa. Kind of assay: Cytotoxicity against human HeLa cells after 48 hrs by MTT assay. In kind it is functional, cell-based.
Assay [6] can be described thus: Binding affinity to 5'-FAM/3'-TAMARA labelled c-KIT2 G-quadruplex DNA (unknown origin) assessed as change in melting temperature at 1 uM by FRET assay.
A further assay relates to K562. Kind of assay: Cytotoxicity against human K562 cells after 48 hrs by MTT assay. Conditions: K562, 48 h. Format: functional, cell-based.
Assay [7] in a line: Binding affinity to F10T duplex DNA (unknown origin) assessed as change in melting temperature at 1 uM by FRET assay.
Assay [8] in a line: Binding affinity to biotinylated c-KIT1 G-quadruplex DNA (unknown origin) by SPR assay. (In general: SPR reads the build-up and loss of mass on a sensor chip optically.)
Assay [9] in a line: Binding affinity to F10T duplex DNA (unknown origin) assessed as change in melting temperature at 2 uM by FRET assay.
For the next assay, the system named is A549. Kind of assay: Cytotoxicity against human A549 cells after 48 hrs by MTT assay. In kind it is functional, cell-based. Conditions: A549, 48 h.
A short description of assay [10]: Binding affinity to c-KIT1 G-quadruplex DNA (unknown origin) assessed as isosbestic point at 10 uM measured after 10 mins by UV-vis spectroscopic method.
The nature of assay [11]: Binding affinity to c-KIT2 G-quadruplex DNA (unknown origin) assessed as maintainance of parallel c-KIT G-quadruplex conformation at 5 uM in presence of KCl measured after 10 mins by CD-spectroscopic analysis.
Assay [12] can be described thus: Binding affinity to c-KIT1 G-quadruplex DNA (unknown origin) assessed as ability to promote c-KIT G-rich sequences to form parallel G-quadruplex at 25 uM in absence of KCl measured after 10 mins by CD-spectroscopic analysis.
Assay [13] can be described thus: Binding affinity to c-KIT1 G-quadruplex DNA (unknown origin) assessed as maintainance of parallel c-KIT G-quadruplex conformation at 5 uM in presence of KCl measured after 10 mins by CD-spectroscopic analysis.
The nature of assay [14]: Binding affinity to c-KIT2 G-quadruplex DNA (unknown origin) assessed as ability to promote c-KIT G-rich sequences to form parallel G-quadruplex at 25 uM in absence of KCl measured after 10 mins by CD-spectroscopic analysis.
The nature of assay [15]: Binding affinity to c-KIT1 G-quadruplex DNA (unknown origin) assessed as hyperchromicity at 5 uM measured after 10 mins by fluorescence spectroscopic method.
Assay [16] in a line: Binding affinity to c-KIT1 G-quadruplex DNA (unknown origin) assessed as hyperchromicity at 10 uM measured after 10 mins by UV-vis spectroscopic method.
Assay [17] in a line: Binding affinity to c-KIT1 G-quadruplex DNA (unknown origin) assessed as red shift at 10 uM measured after 10 mins by UV-vis spectroscopic method.
The nature of assay [18]: Binding affinity to c-KIT1 G-quadruplex DNA (unknown origin) assessed as 1:1 binding stoichiometry between compound and G-quadruplex DNA by Job's plot method.
The nature of assay [19]: Binding affinity to c-KIT1 G-quadruplex DNA (unknown origin) assessed as 1:1 binding stoichiometry between compound and G-quadruplex DNA 10 uM by ESI-MS spectra analysis.
Assay [20] can be described thus: Binding affinity to c-KIT1 G-quadruplex DNA (unknown origin) measured after 10 mins by UV-vis spectroscopic method.

Each structure is given as a SMILES string. The source made the active and inactive calls. The rule behind the calls is not given here. Where only a bound is given, the exact number is not on record here.

One may read the Kd as the free concentration of one partner at which half of the binding sites on the other are occupied at equilibrium, for simple one-to-one binding. As a reminder, the IC50 is the midpoint of a concentration-inhibition curve. The low end stands for inhibition by little substance, the high end for a need for much substance. What is called ΔTm is the shift of the melting midpoint relative to a reference.

As to `Cc1ccc(NC(=O)c2ccc(CN3CCN(C)CC3)cc2)cc1Nc1nccc(-c2cccnc2)n1`, in the assay filed under Homo sapiens, the result was inactive.
On to `COc1cc2c(cc1OC)-c1nc3ccccc3c(NCCCN(C)C)c1CC2`, for which, in assay [1], the Selectivity ratio was over 5.7. In addition, the Kd in assay [2] is over 20 µM; in [8], 3.5 µM. For the same compound, the result in assay [3] was Active. Moreover, the half-maximal inhibitory concentration (IC50) in the assay on BJ is 4.2 µM; with HeLa, 5.1 µM; with K562, 6.7 µM; with A549 it was 3.6 µM. Also, the ΔTm turned out to be 20.4 °C in [4]; 12.3 °C in [5]; 9 °C in [6]; 1.3 °C in [7]; 2.3 °C in [9].
Regarding `COc1cc2c(cc1OC)-c1nc3ccccc3c(NCCCN3CCCC3)c1CC2`, the Selectivity ratio in assay [1] was over 6.9. Also, the results for the equilibrium dissociation constant (Kd) in assay [2] and in assay [8] were over 20 µM and 2.9 µM, respectively. Moreover, in [3], the result was Active. Also, the IC50 worked out at 6.7 µM in the assay with BJ, 4.3 µM with HeLa, 4.2 µM with K562 and 3.9 µM in the assay with A549. For the same compound, the shift in melting temperature (ΔTm) in assay [4] amounted to 20.5 °C; in assay [5] it was 10.8 °C; in [6] it was 8.6 °C; in [7] it was 1.1 °C; in [9], 2.9 °C.
Consider `COc1cc2c(cc1OC)-c1nc3ccccc3c(NCCCN3CCN(C)CC3)c1CC2`, for which the Selectivity ratio in [1] is over 7.1. Moreover, the Kd in [2] was over 20 µM; in assay [8] it was 2.8 µM. Moreover, in [3], the result was Active. The IC50 was determined as 13.7 µM with BJ, 9.6 µM in the assay on HeLa, 4.2 µM with K562 and 6.4 µM in the assay on A549. In addition, the ΔTm is 22.9 °C in [4]; 18.7 °C in assay [5]; 8.6 °C in assay [6]; 1.3 °C in assay [7]; 1.6 °C in [9].
For `COc1cc2c(cc1OC)-c1nc3ccccc3c(NCCCN3CCCCC3)c1CC2`, in assay [1], the Selectivity ratio is over 5.1. The Kd in [2] was over 20 µM; in assay [8], 3.9 µM. The result in assay [3] was Active. Besides, the 50% inhibitory concentration (IC50) with BJ turned out to be 12.3 µM; in the assay with HeLa, 9.9 µM; with K562, 3.9 µM; with A549 it was 4.4 µM. Further, the ΔTm was 20.2 °C in [4]; 11.6 °C in [5]; 8.1 °C in assay [6]; 1.4 °C in assay [7]; 2.1 °C in assay [9].
Regarding `CCN(CC)CCCNc1c2c([n+](C)c3ccccc13)-c1cc(OC)c(OC)cc1CC2`, the outcome in assay [10], in [11], in [12], in assay [3], in [13] and in assay [14] was Active. Also, the outcome in assay [15], in assay [16], in assay [17], in assay [18] and in assay [19] was Active. The Selectivity ratio in [1] was over 2.7. Further, the Kd was over 20 µM in assay [2], 7.4 µM in [8] and 9.1 µM in [20]. For the same compound, the half-maximal inhibitory concentration (IC50) with BJ is over 50 µM; in the assay on HeLa it was over 50 µM; in the assay on K562, 37.1 µM; with A549, over 50 µM. Further, the ΔTm is 10.8 °C in [4]; 7.5 °C in [5]; 3.6 °C in assay [6]; 0.9 °C in [7]; 0.4 °C in assay [9].
Consider `COc1cc2c(cc1OC)-c1c(c(NCCN(C)C)c3ccccc3[n+]1C)CC2`, for which the Selectivity ratio in assay [1] was over 2.5. For the same compound, the values for the Kd in [2] and in [8] were over 20 µM and 8 µM, respectively. Also, the result in [3] was Active. Besides, the concentration for half-maximal inhibition (IC50) in the assay with BJ was over 50 µM; in the assay with HeLa, over 50 µM; in the assay with K562, 33.5 µM; in the assay on A549 it was over 50 µM. Moreover, the ΔTm came to 7.4 °C in assay [4]; 6.7 °C in assay [5]; 2.8 °C in assay [6]; 0.8 °C in assay [7]; 0.3 °C in assay [9].
Take `COc1cc2c(cc1OC)-c1c(c(NCCCN(C)C)c3ccccc3[n+]1C)CC2`: the Selectivity ratio in [1] was over 3.4. The dissociation constant Kd in assay [2] is over 20 µM; in assay [8], 5.8 µM. Also, the outcome in [3] was Active. Also, the IC50 in the assay on BJ, in the assay on HeLa, with K562 and in the assay on A549 was over 50 µM throughout. Also, the thermal shift (ΔTm) in assay [4] is 10.7 °C; in assay [5] it was 8.6 °C; in assay [6] it was 3.7 °C; in [7], 0.8 °C; in assay [9], 0.3 °C.

The values above are taken from ChEMBL document CHEMBL4011592, “Synthesis and evaluation of 7-substituted-5,6-dihydrobenzo[c]acridine derivatives as new c-KIT promoter G-quadruplex binding ligands” (Eur J Med Chem, 2017).
